Key:
furin = target: T1, furin (Homo sapiens, UniProt P09958); assay: SPR (Biacore X100, furin amine-coupled on CM5, steady-state affinity); also inhibits recombinant furin in a fluorimetric assay; format: binding
T1 construct: commercial recombinant Human Furin

SF-268 = assay: cells; set-up: glioma cell line sensitivity to 2OHOA, half maximal inhibitory concentration; conditions: Homo sapiens, SF-268
SF-295 = assay: cells; set-up: glioma cell line sensitivity to 2OHOA, half maximal inhibitory concentration; conditions: Homo sapiens, SF-295
U-118 MG = assay: cells; set-up: glioma cell line sensitivity to 2OHOA, half maximal inhibitory concentration; conditions: Homo sapiens, U-118-MG
U-251 MG = assay: cells; set-up: glioma cell line sensitivity to 2OHOA, half maximal inhibitory concentration; conditions: Homo sapiens, U-251
U-87 MG = assay: cells; set-up: glioma cell line sensitivity to 2OHOA, half maximal inhibitory concentration; conditions: Homo sapiens, U-87 MG

T1 sequence (P09958 108-794): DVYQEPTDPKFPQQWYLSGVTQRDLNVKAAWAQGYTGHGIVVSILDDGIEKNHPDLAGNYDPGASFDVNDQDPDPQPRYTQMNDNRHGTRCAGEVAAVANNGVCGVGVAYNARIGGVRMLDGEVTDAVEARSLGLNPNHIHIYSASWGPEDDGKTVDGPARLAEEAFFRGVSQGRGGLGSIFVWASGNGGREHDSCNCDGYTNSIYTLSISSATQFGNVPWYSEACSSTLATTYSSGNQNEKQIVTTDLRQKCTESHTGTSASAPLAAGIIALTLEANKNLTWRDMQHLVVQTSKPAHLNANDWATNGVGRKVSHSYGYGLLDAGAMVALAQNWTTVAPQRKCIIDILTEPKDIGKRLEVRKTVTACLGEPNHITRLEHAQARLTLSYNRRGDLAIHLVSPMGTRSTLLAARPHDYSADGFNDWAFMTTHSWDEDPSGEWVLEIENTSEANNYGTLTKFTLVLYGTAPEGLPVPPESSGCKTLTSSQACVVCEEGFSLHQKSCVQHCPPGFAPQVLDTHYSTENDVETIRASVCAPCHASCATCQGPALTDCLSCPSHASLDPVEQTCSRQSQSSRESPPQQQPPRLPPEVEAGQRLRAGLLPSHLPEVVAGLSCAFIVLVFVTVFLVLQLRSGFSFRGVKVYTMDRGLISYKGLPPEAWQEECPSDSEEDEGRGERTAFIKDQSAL

CCCCCCCC/C=C\CCCCCCC(O)C(=O)O (stereo not drawn) [2OHOA, 2-hydroxy-9-cis-ocadecenoic acid]
Kd (furin): 19.5 µM
IC50 (SF-268): 240 µM
IC50 (SF-295): 300 µM
IC50 (U-118 MG): 180 µM
IC50 (U-251 MG): 427 µM
IC50 (U-87 MG): 172 µM

From article PMC11996967, “Targeting the Notch-Furin axis with 2-hydroxyoleic acid: a key mechanism in glioblastoma therapy” (Cellular Oncology, 2024)
